# Results reported in PMC9618103, “Exploratory toxicology studies of 2,3-substituted imidazo[1,2-a]pyridines with antiparasitic and anti-inflammatory properties” (Toxicology Research, 2022).
# Legend:
# Wistar rats [1] = test: Hepatic and renal lipid peroxidation (lipid-soluble fluorescence); type: in vivo; details: rats, p.o., 14 days at 10% of LD50 (CCl4, APAP: once daily, 3 days), mean ± SEM, n = 6; for Renal Lipoperoxidation: kidney; for Hepatic Lipoperoxidation: liver
# Description: (§1) For toxicity tests, acclimatized rats were randomly allocated to 12 groups (n = 12 for the control and n = 6 for the rest groups). […] Meanwhile, the aforementioned vehicles (dose volume 2 mL/kg b.w.) were administered to 3 groups. […] Upon completion of the 14-day treatments and before sample collection, the bladders of animals were emptied by gentle pressure on the lower part of the abdomen to induce urination. The animals were then housed in individual metabolic cages to collect urine for a period of 6 h and then the volume was recorded. Afterward, blood samples were obtained and the serum was separated by centrifugation at 1,620 × g for 10 min at room temperature.
# Lipid peroxidation (LPO) was evaluated by the formation of lipid-soluble fluorescence, as previously described. Briefly, kidney and liver tissues were homogenized in 3 and 5 mL of phosphate buffer (0.2 M, pH = 7.4), respectively. A volume of 1 mL (kidney) or 0.8 mL (liver) of the homogenates was added to 7 mL of chloroform-methanol (2:1, v/v), and after 15 s of vortex mixing, the resulting mixture was cooled using an ice bath for 30 min to allow for phase separation. The fluorescence of the organic phase was measured using a Shimadzu fluorometer (Japan; λex = 370 nm; λem = 430 nm), whose sensitivity was adjusted to 140 fluorescence units by using 1 μg/mL of quinine sulfate in 50 mM H2SO4. The results were expressed as relative fluorescence units per milligram of protein.[33]
# (§2) The protein concentration in homogenates was measured by the Bradford method.[29]
# Wistar rats [2] = test: Subacute toxicity: serum alanine aminotransferase and alkaline phosphatase activity; type: in vivo; details: serum; rats, p.o., 14 days at 10% of LD50 (CCl4, APAP: once daily, 3 days); mean ± SEM, n = 6
# Description: as §1
# The activities of serum alanine aminotransferase (ALT) and alkaline phosphatase (ALP) were measured with standard kits (RANDOX, Laboratories Ltd, UK).
# NIH mice = test: Acute oral toxicity, median lethal dose (LD50); type: in vivo; details: for Category (GHS acute oral toxicity hazard category) / Hazard statement (GHS): based on oral LD50, according to GHS [39]; for Oral LD50: female NIH mice, single oral dose, 14 days observation
# Description: All treatments were administrated orally (p.o.) according to the scheme mentioned below.
# Acute toxicity tests were performed in order to measure the median lethal dose (LD50). After acclimatization, mice were randomly allocated to ten groups (n = 4), including the control group (e.g. water, Tween 80, or PO) and the experimental groups, each with a single dose of one of the IMPYs at 4 levels of dose (0.5, 1.0, 2.0, and 4.0 g/kg b.w.).
# Animals were food deprived overnight prior to administration of the chemical compounds or vehicles, and food was returned 4 h after dosing. Animals had access to water ad libitum throughout the study.[27]^,[28]
# Wistar rats [3] = test: Subacute toxicity: glomerular filtration rate (creatinine clearance) and serum creatinine; type: in vivo; details: for Glomerular Filtration Rate / Serum Creatinine: rats, p.o., 14 days at 10% of LD50 (CCl4, APAP: once daily, 3 days), mean ± SEM, n = 6
# Description: (§3) For toxicity tests, acclimatized rats were randomly allocated to 12 groups (n = 12 for the control and n = 6 for the rest groups). […] Meanwhile, the aforementioned vehicles (dose volume 2 mL/kg b.w.) were administered to 3 groups. […] The animals were then housed in individual metabolic cages to collect urine for a period of 6 h and then the volume was recorded. Afterward, blood samples were obtained and the serum was separated by centrifugation at 1,620 × g for 10 min at room temperature.
# (§4) Serum and urinary creatinine were determined by the Jaffe method. With this value, evaluation was made of the fractional excretion of sodium (FES), fractional excretion of potassium (FEP), and fractional excretion of glucose.[30]^,[31] The GFR was calculated from clearance of endogenous creatinine using the conventional equation:where GFR (CCr) is the creatinine clearance rate (mL/min); UCr and SCr are the creatinine concentrations (mg/dL) in urine and serum, respectively; and φ is the urinary flow rate (UFR) (mL/min). To avoid the error from the tubular secretion of creatinine found in males, only female animals were used.
# Wistar rats [4] = test: Hepatic and renal reactive oxygen species (DCF formation); type: in vivo; details: rats, p.o., 14 days at 10% of LD50 (CCl4, APAP: once daily, 3 days), mean ± SEM, n = 6; for Renal ROS: kidney; for Hepatic ROS: liver
# Description: as §1
# Reactive oxygen species (ROS) were measured by formation of 2′,7′-dichlorofluorescein (DCF). An aliquot of 10 μL (kidney) or 5 μL (liver) of the homogenates was added to 1,940 or 1,945 μL of TRIS:HEPES (18:1) and was incubated in the presence of 50 μL of 2′,7′-dichlorofluorescein diacetate for 1 h at 37 °C. In order to quench the reaction, the mixture was chilled using an ice bath. The fluorescence was measured using a Shimadzu fluorometer (Japan; λex = 488 nm; λem = 525 nm). The results were expressed as nM DCF formed per mg protein/h.[33]
# as §2
# Wistar rats [5] = test: Subacute toxicity: serum and urine glucose, urinary protein excretion; type: in vivo; details: for Filtered Load of Glucose / Fractional Excretion of Glucose / Serum Glucose / Urinary Glucose Excretion / Urinary Protein Excretion: rats, p.o., 14 days at 10% of LD50 (CCl4, APAP: once daily, 3 days), mean ± SEM, n = 6
# Description: as §3
# Serum and urine glucose concentration were calculated using GOD-PAP kits (RANDOX, Laboratories Ltd, UK). Urinary protein was quantified using the Bradford method.[29]
# as §4
# (§5) The levels of sodium and potassium were measured in urine and serum using a flame photometer (Corning 400, Medfield, United States). Calculation was made of the clearance, fractional excretion, and filtered load of sodium (FLS), filtered load of potassium (FLP), and filtered load of glucose (FLG) using the conventional equations:where CX is the clearance rate of X (mL/min), CCr is the creatinine clearance rate (mL/min), UX and SX are the […] concentrations of X, respectively, φ is the UFR (mL/min), FEX is the fractional excretion (%) of X, and FLX is the filtered load of X in μEq/min (Na^+ or K^+) or mg/min (glucose).
# Wistar rats [6] = test: Subacute toxicity: water and electrolyte balance (osmolality, sodium, potassium, urinary flow); type: in vivo; details: rats, p.o., 14 days at 10% of LD50 (CCl4, APAP: once daily, 3 days); mean ± SEM, n = 6
# Description: as §3
# Osmolality of serum and urine were assessed (in triplicate) by using a vapor pressure osmometer (Wescor 5500, Logan, United States). U/S ratio as well as osmolar (COsm) and free water clearances were calculated via conventional equations:where UOsm and SOsm are the osmolality values (mOsm/Kg) in urine and serum, respectively, and φ is the UFR (mL/min).
# as §5
# [7] = test system: renal secretory pathway of organic anions; test: Active tubular secretion of organic acids (PAH uptake in kidney cortex slices); type: in vivo, rats; details: for PAH t/m ratio: kidney cortex slices, PAH 1 mM, 1 h, 25 °C, rats, p.o., 14 days at 10% of LD50 (CCl4, APAP: once daily, 3 days), mean ± SEM, n = 6
# Description: as §1
# p-Aminohippuric acid (PAH) was used as an indicator of the renal secretory pathway of organic anions. Kidneys were extracted and immediately submerged in Ringer solution (pH = 7.4 and mOsm = 290 ± 10 mOsm/kg) under constant bubbling with O2/CO2 (95/5%). The kidneys were decapsulated and slices of the kidney cortex were obtained, which were then incubated in Ringer solution containing PAH (1 mM) for 1 h at 25 °C under constant bubbling with O2/CO2 (95/5%). The levels of PAH were quantified with the Bratton-Marshall method and results were expressed as the PAH tissue/medium ratio (PAH t/m ratio).[31]^,[32]
SMILES,Renal Lipoperoxidation (Wistar rats [1]),Hepatic Lipoperoxidation (Wistar rats [1]),Alanine Aminotransferase (Wistar rats [2]),Alkaline Phosphatase (Wistar rats [2]),Category (GHS acute oral toxicity hazard category) (NIH mice),Hazard statement (GHS) (NIH mice),Oral LD50 (NIH mice),Glomerular Filtration Rate (Wistar rats [3]),Serum Creatinine (Wistar rats [3]),Renal ROS (Wistar rats [4]),Hepatic ROS (Wistar rats [4]),Filtered Load of Glucose (Wistar rats [5]),Fractional Excretion of Glucose (Wistar rats [5]),Serum Glucose (Wistar rats [5]),Urinary Glucose Excretion (Wistar rats [5]),Urinary Protein Excretion (Wistar rats [5]),Filtered Load of Potassium (Wistar rats [6]),Filtered Load of Sodium (Wistar rats [6]),Fractional Excretion of Potassium (Wistar rats [6]),Fractional Excretion of Sodium (Wistar rats [6]),other results
"O=C(O)c1nc2ccccn2c1[N+](=O)[O-] [Compound 3b, 3-nitroimidazo[1,2-a]pyridine-2-carboxylic acid]",0.44 ± 0.09 URF/mg protein,0.80 ± 0.03 URF/mg protein,32.76 ± 5.37 U/L,56.63 ± 6.67 U/L,5,May be harmful if swallowed,> 2.000 g/kg b.w.,0.63 ± 0.08 mL/min,0.57 ± 0.12 mg/dL,184.33 ± 42.31 nM de DCF/mg protein/h,290.96 ± 40.60 nM de DCF/mg protein/h,0.74 ± 0.09 mg/min,0.04 ± 3.7E-3%,121.37 ± 8.03 mg/dL,262.45 ± 19.41 ng/min,1.18 ± 0.23 µg/min,4.15 ± 0.53 µEq/min,90.75 ± 12.03 µEq/min,11.63 ± 2.44%,0.38 ± 0.05%,"Serum Osmolality (Wistar rats [6]): 293.74 ± 2.06 mOsm/kg; Serum Potassium (Wistar rats [6]): 6.69 ± 0.40 mEq/L; Serum Sodium (Wistar rats [6]): 144.61 ± 3.41 mEq/L; U/S Osm ratio (Wistar rats [6]): 3.21 ± 0.39; Urinary Flow Rate (Wistar rats [6]): 3.75 ± 0.75 µL/min; Urinary Potassium Excretion (Wistar rats [6]): 0.43 ± 0.07 µEq/min; Urinary Sodium Excretion (Wistar rats [6]): 0.34 ± 0.06 µEq/min; PAH t/m ratio [7]: 1.92 ± 0.23; PAH t/m ratio, change in words ([7]; versus control (2a also versus Tween 80 and 2b)): decreased"
"CCOC(=O)c1cn2ccccc2n1 [Compound 1a, ethyl imidazo[1,2-a]pyridine-2-carboxylate]",0.28 ± 0.03 URF/mg protein,0.75 ± 0.04 URF/mg protein,22.22 ± 1.69 U/L,93.14 ± 11.91 U/L,5,May be harmful if swallowed,3.175 g/kg b.w.,0.34 ± 0.14 mL/min,0.80 ± 0.14 mg/dL,161.18 ± 27.84 nM de DCF/mg protein/h,317.94 ± 25.65 nM de DCF/mg protein/h,0.39 ± 0.17 mg/min,0.04 ± 0.01%,112.39 ± 4.92 mg/dL,96.54 ± 29.03 ng/min,0.56 ± 0.10 µg/min,2.69 ± 1.19 µEq/min,64.29 ± 26.43 µEq/min,22.26 ± 6.39%,0.74 ± 0.22%,"GFR, change in words (Wistar rats [3]; in comparison to the control group): lower; FLG (filtered load of glucose), change in words (Wistar rats [5]; compared to control values): reduced; Serum Osmolality (Wistar rats [6]): 293.75 ± 1.88 mOsm/kg; Serum Potassium (Wistar rats [6]): 6.57 ± 0.32 mEq/L; Serum Sodium (Wistar rats [6]): 162.39 ± 5.03 mEq/L; U/S Osm ratio (Wistar rats [6]): 3.02 ± 0.25; Urinary Flow Rate (Wistar rats [6]): 4.17 ± 1.25 µL/min; Urinary Potassium Excretion (Wistar rats [6]): 0.34 ± 0.06 µEq/min; Urinary Sodium Excretion (Wistar rats [6]): 0.29 ± 0.08 µEq/min; PAH t/m ratio [7]: 2.51 ± 0.13"
